Test systems include 786-0 renal; A549 NSCLC; NCI-H23 lung; RPMI-8226 leukemia; EKVX NSCLC; ACHN renal; SNB-78 CNS; SNB-19 CNS; SF-295 CNS; CAKI-1 renal.
Holding throughout (test): growth of human tumour cells (NCI), 48 h

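48-hour exposure; five concentrations; linearly interpolated endpoints. At the TGI there is no net growth.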 Bounds are passed on as bounds.

Turning to `O=C(O)c1[nH]c(C(=O)O)c(CC(F)(F)C(F)(F)C(F)(F)F)c1CC(F)(F)C(F)(F)C(F)(F)F`, the TGI in the assay with 786-0 renal, with A549 NSCLC, with NCI-H23 lung, in the assay with RPMI-8226 leukemia, in the assay on EKVX NSCLC and with ACHN renal was more than 100 µM throughout. For the same compound, the TGI with SNB-78 CNS, in the assay with SNB-19 CNS, in the assay on SF-295 CNS and with CAKI-1 renal was more than 100 µM in each case.

With `CC(=O)O/C(C)=C\C(=O)O/N=C(\N)c1ccc(C)cc1`, the TGI is more than 100 µM with 786-0 renal; more than 100 µM with A549 NSCLC; 48.4 µM in the assay with NCI-H23 lung; more than 100 µM with RPMI-8226 leukemia; more than 100 µM in the assay with EKVX NSCLC; more than 100 µM in the assay with ACHN renal. In addition, the TGI is 70.9 µM with SNB-78 CNS, more than 100 µM in the assay with SNB-19 CNS, more than 100 µM in the assay with SF-295 CNS and more than 100 µM with CAKI-1 renal.

On to `COC(=O)C12C3C4C1C1C2C3C41I` (stereo unspecified), for which the TGI in the assay on 786-0 renal, in the assay on A549 NSCLC, with NCI-H23 lung, with RPMI-8226 leukemia, in the assay on EKVX NSCLC and with ACHN renal was more than 100 µM in each case. The TGI in the assay on SNB-78 CNS, in the assay with SNB-19 CNS, in the assay on SF-295 CNS and in the assay with CAKI-1 renal was more than 100 µM each time.

Turning to `Cn1c(=O)c2c(nc3n2CCC(=O)N3)n(C)c1=O`, the TGI in the assay with 786-0 renal, in the assay with A549 NSCLC, in the assay with NCI-H23 lung, with EKVX NSCLC, in the assay on ACHN renal and with SNB-78 CNS was more than 100 µM throughout. Further, the TGI with SNB-19 CNS, in the assay with SF-295 CNS and in the assay on CAKI-1 renal was more than 100 µM in each case.

For the compound `CCCc1ccc(N=Cc2cc(OC)c(OC)c(OC)c2)cc1`, the TGI in the assay on 786-0 renal is more than 100 µM; in the assay on A549 NSCLC, more than 100 µM; in the assay with NCI-H23 lung, more than 100 µM; with RPMI-8226 leukemia, more than 65.8 µM; in the assay on EKVX NSCLC it was more than 100 µM; in the assay with ACHN renal, more than 100 µM. In addition, the TGI in the assay with SNB-78 CNS, in the assay with SNB-19 CNS, in the assay with SF-295 CNS and in the assay on CAKI-1 renal was more than 100 µM each time.

With `CCCCCCCCCCCC(=O)C1=C(O)C(O)CCC1=O` (stereo unspecified), the TGI in the assay with 786-0 renal is more than 100 µM; in the assay on A549 NSCLC, more than 100 µM; in the assay with NCI-H23 lung it was 20 µM; with EKVX NSCLC it was 34.1 µM; with ACHN renal it was 56.9 µM; with SNB-78 CNS it was 55.8 µM. Moreover, the TGI is 49.4 µM with SNB-19 CNS, 30.5 µM in the assay with SF-295 CNS and 70.6 µM in the assay with CAKI-1 renal.

As for `Cc1c2ncccc2c(C)c2c1[nH]c1ccccc12`, the TGI in the assay with 786-0 renal is 23.2 µM; in the assay on A549 NSCLC, 21.1 µM; in the assay with NCI-H23 lung, 26 µM; with RPMI-8226 leukemia it was 26.2 µM; with EKVX NSCLC it was 30.7 µM; with ACHN renal it was 26.5 µM. The TGI with SNB-78 CNS came to 36 µM; with SNB-19 CNS, 26.7 µM; in the assay on SF-295 CNS, 21.9 µM; in the assay on CAKI-1 renal, 22 µM.

For `COc1cccc2c1C1=CC(=O)CCC1C(C)(C)O2` (stereo unspecified), the TGI in the assay on 786-0 renal is more than 100 µM; in the assay with A549 NSCLC, more than 100 µM; in the assay with NCI-H23 lung, more than 100 µM; in the assay on RPMI-8226 leukemia it was 50.4 µM; in the assay with EKVX NSCLC it was more than 100 µM; with ACHN renal it was more than 100 µM. The TGI with SNB-78 CNS, in the assay on SNB-19 CNS, in the assay with SF-295 CNS and with CAKI-1 renal was more than 100 µM throughout.

For the compound `CN(C)CCNC(=O)c1cc([N+](=O)[O-])cc2ccc(-c3ccccc3)nc12`, the TGI is 94.3 µM in the assay on 786-0 renal; 28 µM in the assay with A549 NSCLC; 27.6 µM with NCI-H23 lung; 70.2 µM in the assay with RPMI-8226 leukemia; more than 71.4 µM in the assay on EKVX NSCLC; 28.5 µM in the assay on ACHN renal. The TGI in the assay with SNB-78 CNS is more than 60.9 µM; in the assay on SNB-19 CNS, 35.5 µM; in the assay with SF-295 CNS, more than 57.3 µM; with CAKI-1 renal, more than 40.4 µM.

In the case of `CCc1cccc(C)c1NC(=O)CC1Sc2ccccc2NC1=O` (stereo unspecified), the TGI in the assay with 786-0 renal, in the assay with A549 NSCLC, with NCI-H23 lung, in the assay with RPMI-8226 leukemia, in the assay with EKVX NSCLC and in the assay with ACHN renal was more than 100 µM each time. The TGI in the assay on SNB-78 CNS, in the assay on SNB-19 CNS, with SF-295 CNS and in the assay on CAKI-1 renal was more than 100 µM throughout.

On to `c1cc2c(cnc3cscc32)s1`, for which the TGI with 786-0 renal, in the assay with A549 NSCLC, in the assay on NCI-H23 lung, with RPMI-8226 leukemia, with ACHN renal and in the assay on SNB-78 CNS was more than 100 µM throughout. The TGI in the assay with SNB-19 CNS, in the assay on SF-295 CNS and in the assay on CAKI-1 renal was more than 100 µM each time.

As for `COc1cc2ccc3c4cc(OC)c(OCc5ccccc5)cc4cnc3c2cc1OC`, the TGI with 786-0 renal, in the assay on A549 NSCLC, with NCI-H23 lung, with RPMI-8226 leukemia, with EKVX NSCLC and with ACHN renal was more than 100 µM in each case. For the same compound, the TGI in the assay on SNB-78 CNS, in the assay on SF-295 CNS and in the assay on CAKI-1 renal was more than 100 µM in each case.

For the compound `COc1cc(C(C#N)NNC(=O)c2ccccc2O)ccc1O` (stereo unspecified), the TGI in the assay with 786-0 renal is more than 100 µM; in the assay on A549 NSCLC, more than 100 µM; in the assay with NCI-H23 lung, 10.4 µM; in the assay on RPMI-8226 leukemia, more than 100 µM; with ACHN renal it was more than 100 µM; with SNB-78 CNS, more than 100 µM. Further, the TGI in the assay on SF-295 CNS and in the assay with CAKI-1 renal was more than 100 µM in each case.

As for `CC1(C)OC2C(=O)OC(COCc3ccccc3)C2O1` (stereo unspecified), the TGI with 786-0 renal, in the assay on A549 NSCLC, in the assay on NCI-H23 lung, in the assay on RPMI-8226 leukemia, in the assay with EKVX NSCLC and with ACHN renal was more than 100 µM in each case. The TGI in the assay with SNB-78 CNS, in the assay on SF-295 CNS and in the assay with CAKI-1 renal was more than 100 µM each time.

With `Cc1ccc(-n2c(C)nc3c2C(=O)c2ccccc2C3=O)cc1`, the TGI in the assay with 786-0 renal, with A549 NSCLC, in the assay with NCI-H23 lung, in the assay with EKVX NSCLC, in the assay on ACHN renal and in the assay on SNB-78 CNS was more than 100 µM in each case. The TGI with SNB-19 CNS and in the assay on SF-295 CNS was more than 100 µM in each case.

The values above are taken from PubChem BioAssay (NCI).
